{
  "source": "patent US7705016B2",
  "about": "“Regulation of food intake by modulation of long-chain fatty acyl-CoA levels in the hypothalamus” (Albert Einstein College of Medicine of Yeshiva University, priority 2003, dated 2010)",
  "test_system": "male Sprague-Dawley (S-D) rats",
  "assay": "ICV OA infusion with pancreatic-insulin clamp (insulin action studies)",
  "assay_type": "in vivo, rat",
  "conditions": "for effect on GP: over-fed rats (HF140)",
  "source_text": "Insulin action studies. The experimental protocol herein was designed to examine the effect of nutritional status on the ability of long-chain fatty acids in the hypothalamus to modulate carbohydrate metabolism. Rats (n=43) were implanted with chronic catheters as previously described (Liu et al., 1998). After full recovery from the catheterization, animals were randomized into three groups HF55 (n=16), HF80 (n=9), or HF140 (n=18) and were allowed to consume their allocated diet for three days. On the night prior to the in vivo study all rats received 55 kcal to ensure a similar nutritional state at the start of the metabolic studies. All studies were performed in awake, unstressed, chronically catheterized rats. At t=−120 (FIG. 7a), a primed-continuous infusion of ICV OA (total dose 30- or 300-nmol) or Vehicle (HBP 10% in aCSF) was initiated and maintained throughout the duration of the study. Plasma glucose was measured periodically initiating at the onset (t=−120) of the ICV infusion and lasting throughout the duration of the study. Plasma samples for determination of insulin, leptin, and non-esterified fatty acid concentration were obtained at the onset (t=−120) and at 30 min intervals during the study. At t=0, and a primed-continuous infusion of HPLC-purified [3-3H]-glucose (New England Nuclear, Boston, Mass.; 40 μCi bolus, 0.4 μCi/min for duration of the study) was initiated and maintained for the last four hours of the study. Samples for determination of ^3H-glucose specific activity were obtained at 10-minute intervals throughout infusions. Finally, at t=120, a pancreatic-insulin clamp study was initiated and maintained for two hours. During this procedure, a primed-continuous infusion of regular insulin (1 mU/kg/min) was administered, and a variable infusion of 25% glucose solution was started at t=120 and periodically adjusted to clamp the plasma glucose concentration at ˜7 mM. The rate of insulin infusion was designed to replace the plasma insulin concentration at ˜the average basal levels in post-absorptive rats. In order to control for possible effects of the ICV injections on endocrine pancreas, somatostatin (3 μg/kg/min) was coinfused with insulin to inhibit endogenous insulin secretion. At the end of the in vivo studies, rats were anesthetized (pentobarbital 55 mg/kg body weight, intravenously) and tissue samples were freeze-clamped in situ with aluminum tongs pre-cooled in liquid nitrogen. All tissue samples were stored at −80° C. for subsequent analysis.\nAnalytical Procedures and Calculations. Plasma glucose was measured by the glucose oxidase method (Glucose Analyzer II, Beckman Instruments, Inc. Fullerton, Calif., USA). Plasma insulin and leptin levels were determined by RIA (rat Leptin RIA kit, Linco Research Inc., St. Charles, Mo.). Serum adiponectin was measured by RIA (Linco Research, Inc., St. Charles, Mo.). Plasma non-esterified fatty acid concentrations were determined an enzymatic method by an automated kit according to the manufacturer's specifications (Waco Pure Chemical Industries. Osaka, Japan). The radioactivity of [3-^3H]glucose in plasma was measured from supernatants of Ba (OH)2 and from ZnSO4 precipitates (Somogyi procedure), after each was evaporated to dryness for the removal of tritiated water. […]",
  "note": "Several values for one entry are separate records, joined by “and”; a condition that tells them apart may be missing. Equal values may be shown once. Entries after “also recorded” stand apart in the source; their conditions may differ.",
  "data": [
    {"compound": "CCCCCCCC/C=C\\CCCCCCCC(=O)O", "note": "[OA, oleic acid]", "values": [
      {"measurement": "inhibition of GP, decrease from basal", "setting": "HF55, ICV OA 30 nmol", "value": 71, "unit": "%"},
      {"measurement": "GIR required to maintain euglycemia", "setting": "HF80, ICV OA 30 nmol", "value": "4.64 mg/kg/min and ~9 mg/kg/min"},
      {"measurement": "effect on GP", "setting": "ICV OA 30 nmol", "value": "failed to significantly alter GP"},
      {"measurement": "effect on GP", "setting": "ICV OA 300 nmol", "value": "failed to significantly decrease GP; also recorded: failed to significantly alter GP"},
      {"measurement": "rate of glucose disappearance (Rd)", "setting": "pancreatic-insulin clamp, any of the experimental groups", "value": "did not significantly modify; also recorded: not significantly affected"}
    ]}
  ]
}
